Source: US11414379B2, “SPAK kinase inhibitors as neuroprotective agents” (United States Government as represented by the Department …, priority 2018, dated 2022)

Legend:
Assay in all cases: Kinase panel (Dundee profiling)
Format in all cases: biochemical
Conditions in all cases: read-out: % residual kinase activity
ABL = ABL (Homo sapiens, UniProt P00519)
Method: (§1) The kinase selectivity of ZT-1a was further assessed using standard radioisotopic enzymatic assays against a panel of 140 recombinant kinases (Dundee profiling, Table 2) (Bain et al. (2007) The Biochemical journal 408, 297-315). ZT-1a at a concentration of 10 μM inhibited only MAPKAP-K2 activity 85±7% compared to DMSO control, representing high kinase selectivity.
(§2) Referring to Table 2, ZT-1a was tested at 10 and 1 μM against a panel of 140 recombinant kinases in an enzymatic activity-based assay performed by the International Centre for Kinase Profiling in the MRC Protein Phosphorylation and Ubiquitylation Unit. Values represent % residual kinase activity (mean+/−SEM, n=3). Kinases labelled with an asterick* are inhibited ≥50% by ZT-1a.

BRK = BRK (Homo sapiens, UniProt Q13882)
Method: as §1, §2

CAMKKb = CAMKKb (Homo sapiens, UniProt Q96RR4)
Method: as §1, §2

CK1γ2 = CK1γ2 (Homo sapiens, UniProt P78368)
Method: as §1, §2

CK2 = CK2 (Homo sapiens, UniProt P68400)
Method: as §1, §2

DDR2 = DDR2 (Homo sapiens, UniProt Q16832)
Method: as §1, §2

DYRK2 = DYRK2 (Homo sapiens, UniProt Q92630)
Method: as §1, §2

EF2K = EF2K (Homo sapiens, UniProt O00418)
Method: as §1, §2

EPH-A2 = EPH-A2 (Homo sapiens, UniProt P29317)
Method: as §1, §2

HIPK2 = HIPK2 (Homo sapiens, UniProt Q9H2X6)
Method: as §1, §2

JNK1 = JNK1 (Homo sapiens, UniProt P45983)
Method: as §1, §2

JNK3 = JNK3 (Homo sapiens, UniProt P53779)
Method: as §1, §2

Lck = Lck (Homo sapiens, UniProt P06239)
Method: as §1, §2

MARK3 = MARK3 (Homo sapiens, UniProt P27448)
Method: as §1, §2

MELK = MELK (Homo sapiens, UniProt Q14680)
Method: as §1, §2

MKK1 = MKK1 (Homo sapiens, UniProt Q02750)
Method: as §1, §2

MLK3 = MLK3 (Homo sapiens, UniProt Q16584)
Method: as §1, §2

MNK1 = MNK1 (Homo sapiens, UniProt Q9BUB5)
Method: as §1, §2

MPSK1 = MPSK1 (Homo sapiens, UniProt O75716)
Method: as §1, §2

MST2 = MST2 (Homo sapiens, UniProt Q13188)
Method: as §1, §2

NEK6 = NEK6 (Homo sapiens, UniProt Q9HC98)
Method: as §1, §2

PIM1 = PIM1 (Homo sapiens, UniProt P11309)
Method: as §1, §2

PKA = PKA (Homo sapiens, UniProt P17612)
Method: as §1, §2

PKBb = PKBb (Homo sapiens, UniProt P31751)
Method: as §1, §2

PRAK = PRAK (Homo sapiens, UniProt Q8IW41)
Method: as §1, §2

RSK1 = RSK1 (Homo sapiens, UniProt Q15418)
Method: as §1, §2

TBK1 = TBK1 (Homo sapiens, UniProt Q9UHD2)
Method: as §1, §2

TTBK2 = TTBK2 (Homo sapiens, UniProt Q6IQ55)
Method: as §1, §2

WNK1 = WNK1 (Homo sapiens, UniProt Q9H4A3)
Method: as §1, §2

YES1 = YES1 (Homo sapiens, UniProt P07947)
Method: as §1, §2

p38d MAPK = p38d MAPK (Homo sapiens, UniProt O15264)
Method: as §1, §2

p38g MAPK = p38g MAPK (Homo sapiens, UniProt P53778)
Method: as §1, §2

Chain of TTBK2 (Q6IQ55 whole entry, species assumed): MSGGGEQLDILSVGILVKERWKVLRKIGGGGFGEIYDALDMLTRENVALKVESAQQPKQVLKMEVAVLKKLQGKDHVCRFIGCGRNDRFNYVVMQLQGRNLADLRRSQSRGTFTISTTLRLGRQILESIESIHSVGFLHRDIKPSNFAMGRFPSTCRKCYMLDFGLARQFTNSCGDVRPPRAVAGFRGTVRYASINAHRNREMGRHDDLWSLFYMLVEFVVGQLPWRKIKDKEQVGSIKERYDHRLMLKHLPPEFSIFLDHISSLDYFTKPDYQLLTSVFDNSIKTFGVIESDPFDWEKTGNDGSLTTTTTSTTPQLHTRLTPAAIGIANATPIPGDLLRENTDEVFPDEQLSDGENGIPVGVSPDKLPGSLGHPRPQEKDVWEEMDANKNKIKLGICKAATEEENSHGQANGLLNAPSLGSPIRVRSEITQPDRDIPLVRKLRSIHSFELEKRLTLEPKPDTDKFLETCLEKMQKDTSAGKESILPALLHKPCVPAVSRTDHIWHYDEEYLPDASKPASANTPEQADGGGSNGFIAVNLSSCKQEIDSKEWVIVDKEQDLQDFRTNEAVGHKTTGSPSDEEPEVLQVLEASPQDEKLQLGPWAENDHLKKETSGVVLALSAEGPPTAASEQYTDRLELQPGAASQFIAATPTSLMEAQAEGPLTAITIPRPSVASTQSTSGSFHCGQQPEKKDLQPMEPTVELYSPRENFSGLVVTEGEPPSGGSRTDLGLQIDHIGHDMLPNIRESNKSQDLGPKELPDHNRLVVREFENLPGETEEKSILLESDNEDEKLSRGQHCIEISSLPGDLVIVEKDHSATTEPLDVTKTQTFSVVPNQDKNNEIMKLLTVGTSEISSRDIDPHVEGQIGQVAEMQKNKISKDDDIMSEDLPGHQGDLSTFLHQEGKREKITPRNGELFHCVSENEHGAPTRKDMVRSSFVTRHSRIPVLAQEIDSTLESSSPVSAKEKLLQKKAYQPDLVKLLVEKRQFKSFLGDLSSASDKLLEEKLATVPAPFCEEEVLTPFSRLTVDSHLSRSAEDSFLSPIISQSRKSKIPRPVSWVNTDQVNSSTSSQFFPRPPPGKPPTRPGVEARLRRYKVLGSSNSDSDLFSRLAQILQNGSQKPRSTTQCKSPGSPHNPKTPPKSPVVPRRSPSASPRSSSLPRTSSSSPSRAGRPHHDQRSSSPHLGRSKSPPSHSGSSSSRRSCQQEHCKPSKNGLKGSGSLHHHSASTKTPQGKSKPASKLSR
Chain of HIPK2 (Q9H2X6 whole entry, species assumed): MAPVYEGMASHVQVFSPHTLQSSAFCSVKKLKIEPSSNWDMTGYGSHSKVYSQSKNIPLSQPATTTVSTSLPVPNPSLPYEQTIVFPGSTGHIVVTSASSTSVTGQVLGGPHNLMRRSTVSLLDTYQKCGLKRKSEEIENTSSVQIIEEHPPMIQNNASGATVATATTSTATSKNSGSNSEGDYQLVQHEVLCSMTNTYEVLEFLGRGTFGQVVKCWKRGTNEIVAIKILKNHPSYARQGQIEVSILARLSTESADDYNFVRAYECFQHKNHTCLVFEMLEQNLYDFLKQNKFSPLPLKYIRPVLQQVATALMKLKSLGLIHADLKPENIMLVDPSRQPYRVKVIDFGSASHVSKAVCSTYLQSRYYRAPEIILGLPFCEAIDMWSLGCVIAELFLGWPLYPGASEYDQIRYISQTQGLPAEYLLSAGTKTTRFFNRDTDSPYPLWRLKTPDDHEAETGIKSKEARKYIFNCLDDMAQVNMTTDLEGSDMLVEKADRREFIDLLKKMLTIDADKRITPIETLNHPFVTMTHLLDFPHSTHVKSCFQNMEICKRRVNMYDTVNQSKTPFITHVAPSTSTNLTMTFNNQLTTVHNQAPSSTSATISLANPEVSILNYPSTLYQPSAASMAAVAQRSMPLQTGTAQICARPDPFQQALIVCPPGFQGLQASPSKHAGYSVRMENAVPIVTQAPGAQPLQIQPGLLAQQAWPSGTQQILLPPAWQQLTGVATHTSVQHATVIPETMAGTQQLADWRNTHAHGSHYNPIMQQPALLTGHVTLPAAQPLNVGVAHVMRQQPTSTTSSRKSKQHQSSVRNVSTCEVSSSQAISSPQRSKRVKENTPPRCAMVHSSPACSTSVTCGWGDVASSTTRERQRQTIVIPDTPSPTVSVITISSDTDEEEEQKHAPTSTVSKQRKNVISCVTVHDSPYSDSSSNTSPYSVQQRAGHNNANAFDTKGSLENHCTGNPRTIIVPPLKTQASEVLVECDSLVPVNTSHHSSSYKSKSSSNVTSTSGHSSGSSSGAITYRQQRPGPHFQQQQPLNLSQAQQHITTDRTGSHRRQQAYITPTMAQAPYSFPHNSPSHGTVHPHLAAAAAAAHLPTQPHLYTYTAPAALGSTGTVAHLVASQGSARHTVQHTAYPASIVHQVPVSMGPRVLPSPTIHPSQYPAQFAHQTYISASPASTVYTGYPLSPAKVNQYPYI
Chain of PRAK (Q8IW41 whole entry, species assumed): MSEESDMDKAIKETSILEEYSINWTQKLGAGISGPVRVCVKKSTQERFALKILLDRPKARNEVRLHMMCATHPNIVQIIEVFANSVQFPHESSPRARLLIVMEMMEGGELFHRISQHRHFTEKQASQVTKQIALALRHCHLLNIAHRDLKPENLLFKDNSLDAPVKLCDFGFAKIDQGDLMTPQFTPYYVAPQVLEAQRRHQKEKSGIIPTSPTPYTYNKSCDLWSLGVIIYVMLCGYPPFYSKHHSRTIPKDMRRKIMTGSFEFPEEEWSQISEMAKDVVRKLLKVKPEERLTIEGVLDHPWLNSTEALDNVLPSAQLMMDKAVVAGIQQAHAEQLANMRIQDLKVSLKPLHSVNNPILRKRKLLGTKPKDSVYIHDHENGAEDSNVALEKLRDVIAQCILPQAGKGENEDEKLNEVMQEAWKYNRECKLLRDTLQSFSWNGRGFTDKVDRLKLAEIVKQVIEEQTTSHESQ
Chain of ABL (P00519 whole entry, species assumed): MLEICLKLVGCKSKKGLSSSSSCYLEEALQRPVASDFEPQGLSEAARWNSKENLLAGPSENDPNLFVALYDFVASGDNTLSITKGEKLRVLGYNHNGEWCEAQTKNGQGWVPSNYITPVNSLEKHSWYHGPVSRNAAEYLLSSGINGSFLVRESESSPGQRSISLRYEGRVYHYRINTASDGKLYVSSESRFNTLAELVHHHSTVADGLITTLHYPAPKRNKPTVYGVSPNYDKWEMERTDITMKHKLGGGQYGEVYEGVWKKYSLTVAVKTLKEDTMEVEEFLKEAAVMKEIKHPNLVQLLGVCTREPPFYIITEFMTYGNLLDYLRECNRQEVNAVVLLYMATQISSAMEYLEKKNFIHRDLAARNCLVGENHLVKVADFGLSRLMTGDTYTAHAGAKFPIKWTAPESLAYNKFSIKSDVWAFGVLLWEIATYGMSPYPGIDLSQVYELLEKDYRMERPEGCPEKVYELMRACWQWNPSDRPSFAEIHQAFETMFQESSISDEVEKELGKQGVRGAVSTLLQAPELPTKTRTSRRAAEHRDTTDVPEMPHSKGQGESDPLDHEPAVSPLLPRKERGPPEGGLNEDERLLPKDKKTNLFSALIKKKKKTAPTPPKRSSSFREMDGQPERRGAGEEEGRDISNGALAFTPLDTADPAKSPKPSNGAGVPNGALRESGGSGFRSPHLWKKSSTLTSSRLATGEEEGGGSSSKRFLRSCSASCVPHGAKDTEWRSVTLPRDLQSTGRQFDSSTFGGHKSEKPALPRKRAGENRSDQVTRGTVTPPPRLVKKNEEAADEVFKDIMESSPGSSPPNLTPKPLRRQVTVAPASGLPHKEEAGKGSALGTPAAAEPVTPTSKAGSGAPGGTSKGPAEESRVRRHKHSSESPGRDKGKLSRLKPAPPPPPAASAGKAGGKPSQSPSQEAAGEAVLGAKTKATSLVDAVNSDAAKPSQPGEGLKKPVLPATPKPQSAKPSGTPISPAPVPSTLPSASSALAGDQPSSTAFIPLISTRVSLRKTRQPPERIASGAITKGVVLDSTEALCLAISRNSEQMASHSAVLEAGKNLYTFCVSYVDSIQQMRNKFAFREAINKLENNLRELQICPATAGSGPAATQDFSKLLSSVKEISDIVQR
Chain of NEK6 (Q9HC98 whole entry, species assumed): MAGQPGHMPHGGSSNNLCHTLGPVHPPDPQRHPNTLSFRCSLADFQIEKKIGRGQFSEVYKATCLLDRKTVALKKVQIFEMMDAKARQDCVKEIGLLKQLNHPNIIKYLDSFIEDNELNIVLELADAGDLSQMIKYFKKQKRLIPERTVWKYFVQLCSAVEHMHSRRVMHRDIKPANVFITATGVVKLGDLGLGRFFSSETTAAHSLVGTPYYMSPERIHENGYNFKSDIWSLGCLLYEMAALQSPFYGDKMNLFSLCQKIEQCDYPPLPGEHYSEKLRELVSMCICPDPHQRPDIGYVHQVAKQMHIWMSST
Chain of MNK1 (Q9BUB5 whole entry, species assumed): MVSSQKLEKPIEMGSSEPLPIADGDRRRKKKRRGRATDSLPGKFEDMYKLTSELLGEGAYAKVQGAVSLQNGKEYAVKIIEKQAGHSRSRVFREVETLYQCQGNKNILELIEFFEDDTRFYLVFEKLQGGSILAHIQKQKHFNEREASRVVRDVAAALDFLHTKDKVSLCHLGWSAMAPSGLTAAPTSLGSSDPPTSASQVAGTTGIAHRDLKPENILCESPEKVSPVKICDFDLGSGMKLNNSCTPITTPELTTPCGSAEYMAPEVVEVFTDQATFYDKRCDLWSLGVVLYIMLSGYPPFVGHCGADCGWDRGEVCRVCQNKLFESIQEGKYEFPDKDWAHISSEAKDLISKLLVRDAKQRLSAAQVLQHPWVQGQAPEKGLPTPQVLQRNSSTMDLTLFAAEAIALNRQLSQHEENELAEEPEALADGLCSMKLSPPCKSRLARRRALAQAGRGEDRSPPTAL

Cc1cc(C(C#N)c2ccc(Cl)cc2)c(Cl)cc1NC(=O)c1cc(Cl)ccc1O (stereo not shown) [ZT-1a, 5-chloro-N-(5-chloro-4-((4-chlorophenyl)(cyano)methyl)-2-methylphenyl)-2-hydroxy-benzamide]
remaining activity at 1 µM (ABL; 1 μM): 85 ± 4%
remaining activity at 10 µM (ABL; 10 μM): 68 ± 16%
remaining activity at 1 µM (BRK; 1 μM): 116 ± 12%
remaining activity at 10 µM (BRK; 10 μM): 103 ± 2%
remaining activity at 1 µM (CAMKKb; 1 μM): 115 ± 10%
remaining activity at 10 µM (CAMKKb; 10 μM): 102 ± 9%
remaining activity at 1 µM (CK1γ2; 1 μM): 112 ± 12%
remaining activity at 10 µM (CK1γ2; 10 μM): 124 ± 23%
remaining activity at 1 µM (CK2; 1 μM): 72 ± 15%
remaining activity at 10 µM (CK2; 10 μM): 59 ± 16%
remaining activity at 1 µM (DDR2; 1 μM): 111 ± 20%
remaining activity at 10 µM (DDR2; 10 μM): 99 ± 8%
remaining activity at 1 µM (DYRK2; 1 μM): 111 ± 15%
remaining activity at 10 µM (DYRK2; 10 μM): 97 ± 10%
remaining activity at 1 µM (EF2K; 1 μM): 104 ± 13%
remaining activity at 10 µM (EF2K; 10 μM): 56 ± 2%
remaining activity at 1 µM (EPH-A2; 1 μM): 89 ± 23%
remaining activity at 10 µM (EPH-A2; 10 μM): 78 ± 11%
remaining activity at 1 µM (HIPK2; 1 μM): 90 ± 14%
remaining activity at 10 µM (HIPK2; 10 μM): 91 ± 4%
remaining activity at 1 µM (JNK1; 1 μM): 106 ± 4%
remaining activity at 10 µM (JNK1; 10 μM): 110 ± 5%
remaining activity at 1 µM (JNK3; 1 μM): 63 ± 15%
remaining activity at 10 µM (JNK3; 10 μM): 60 ± 10%
remaining activity at 1 µM (Lck; 1 μM): 112 ± 13%
remaining activity at 10 µM (Lck; 10 μM): 127 ± 14%
remaining activity at 1 µM (MARK3; 1 μM): 71 ± 6%
remaining activity at 10 µM (MARK3; 10 μM): 68 ± 8%
remaining activity at 1 µM (MELK; 1 μM): 130 ± 34%
remaining activity at 10 µM (MELK; 10 μM): 63 ± 3%
remaining activity at 1 µM (MKK1; 1 μM): 106 ± 2%
remaining activity at 10 µM (MKK1; 10 μM): 114 ± 17%
remaining activity at 1 µM (MLK3; 1 μM): 119 ± 11%
remaining activity at 10 µM (MLK3; 10 μM): 114 ± 3%
remaining activity at 1 µM (MNK1; 1 μM): 78 ± 19%
remaining activity at 10 µM (MNK1; 10 μM): 87 ± 2%
remaining activity at 1 µM (MPSK1; 1 μM): 110 ± 6%
remaining activity at 10 µM (MPSK1; 10 μM): 105 ± 2%
remaining activity at 1 µM (MST2; 1 μM): 115 ± 4%
remaining activity at 10 µM (MST2; 10 μM): 113 ± 2%
remaining activity at 1 µM (NEK6; 1 μM): 107 ± 6%
remaining activity at 10 µM (NEK6; 10 μM): 108 ± 1%
remaining activity at 1 µM (PIM1; 1 μM): 108 ± 19%
remaining activity at 10 µM (PIM1; 10 μM): 101 ± 8%
remaining activity at 1 µM (PKA; 1 μM): 80 ± 11%
remaining activity at 10 µM (PKA; 10 μM): 50 ± 2%
remaining activity at 1 µM (PKBb; 1 μM): 76 ± 14%
remaining activity at 10 µM (PKBb; 10 μM): 51 ± 13%
remaining activity at 1 µM (PRAK; 1 μM): 78 ± 13%
remaining activity at 10 µM (PRAK; 10 μM): 41 ± 7%
remaining activity at 1 µM (RSK1; 1 μM): 95 ± 2%
remaining activity at 10 µM (RSK1; 10 μM): 87 ± 4%
remaining activity at 1 µM (TBK1; 1 μM): 119 ± 10%
remaining activity at 10 µM (TBK1; 10 μM): 94 ± 3%
remaining activity at 1 µM (TTBK2; 1 μM): 101 ± 32%
remaining activity at 10 µM (TTBK2; 10 μM): 98 ± 34%
remaining activity at 1 µM (WNK1; 1 μM): 125 ± 17%
remaining activity at 10 µM (WNK1; 10 μM): 122 ± 35%
remaining activity at 1 µM (YES1; 1 μM): 109 ± 3%
remaining activity at 10 µM (YES1; 10 μM): 98 ± 7%
remaining activity at 1 µM (p38d MAPK; 1 μM): 95 ± 1%
remaining activity at 10 µM (p38d MAPK; 10 μM): 112 ± 2%
remaining activity at 1 µM (p38g MAPK; 1 μM): 100 ± 11%
remaining activity at 10 µM (p38g MAPK; 10 μM): 100 ± 6%
